Results taken from US20020165148A1, “Analogues and derivatives of gastrin releasing peptide (GRP)” (priority 2000, published 2002).

Key:
[1] = system: pancreatic islet cells; details: pancreatic islet cells in vitro; cited from earlier work
[2] = biological target: T1, DPP IV (Rattus norvegicus, UniProt P14740); assay: inactivation by DPP IV cleavage / half-life in plasma; assay type: in vitro ADME
T1 construct: cleavage by the enzyme DPP IV in plasma; from tissue; host or cells: plasma

[3] = system: diabetic rats; assay: injection of GRP into diabetic rats, clearance of blood glucose; assay type: in vivo

T1 sequence (P14740 37-767 limits assumed): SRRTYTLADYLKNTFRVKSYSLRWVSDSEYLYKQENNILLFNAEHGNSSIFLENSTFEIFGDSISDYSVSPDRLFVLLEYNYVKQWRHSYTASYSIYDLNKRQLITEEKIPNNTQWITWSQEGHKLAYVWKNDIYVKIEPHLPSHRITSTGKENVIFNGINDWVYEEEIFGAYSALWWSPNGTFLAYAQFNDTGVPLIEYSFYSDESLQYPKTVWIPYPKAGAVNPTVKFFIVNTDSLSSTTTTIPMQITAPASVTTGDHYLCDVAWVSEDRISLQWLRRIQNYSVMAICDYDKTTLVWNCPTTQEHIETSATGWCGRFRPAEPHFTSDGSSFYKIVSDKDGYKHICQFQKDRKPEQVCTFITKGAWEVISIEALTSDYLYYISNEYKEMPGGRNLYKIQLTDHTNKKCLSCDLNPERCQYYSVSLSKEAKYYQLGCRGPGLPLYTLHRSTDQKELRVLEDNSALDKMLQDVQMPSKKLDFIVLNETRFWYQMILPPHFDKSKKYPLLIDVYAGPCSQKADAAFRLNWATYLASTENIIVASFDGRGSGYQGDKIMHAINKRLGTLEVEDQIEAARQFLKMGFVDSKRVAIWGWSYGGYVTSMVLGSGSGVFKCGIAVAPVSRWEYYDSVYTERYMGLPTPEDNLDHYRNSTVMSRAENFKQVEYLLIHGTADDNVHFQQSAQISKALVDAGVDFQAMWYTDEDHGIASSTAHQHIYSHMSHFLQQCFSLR

CSCC[C@H](NC(=O)[C@H](CC(C)C)NC(=O)[C@H](Cc1c[nH]cn1)NC(=O)CNC(=O)[C@@H](NC(=O)[C@H](C)NC(=O)[C@H](Cc1c[nH]c2ccccc12)NC(=O)[C@H](Cc1c[nH]cn1)NC(=O)[C@H](CC(N)=O)NC(=O)CNC(=O)[C@H](CCCNC(=N)N)NC(=O)[C@@H]1CCCN1C(=O)[C@H](Cc1ccc(O)cc1)NC(=O)[C@H](CCSC)NC(=O)[C@H](CCCCN)NC(=O)[C@@H](NC(=O)[C@H](CC(C)C)NC(=O)[C@@H](NC(=O)[C@@H](NC(=O)CNC(=O)CNC(=O)CNC(=O)[C@H](C)NC(=O)[C@@H]1CCCN1C(=O)[C@H](CC(C)C)NC(=O)[C@@H]1CCCN1C(=O)[C@@H](N)C(C)C)[C@@H](C)O)C(C)C)[C@@H](C)O)C(C)C)C(N)=O [GRP]
potentiation of glucose-induced insulin secretion [1]: potentiate glucose-induced insulin secretion
inactivation as a result of cleavage by DPP IV in plasma [2]: rapid inactivation
duration of glucose-lowering action ([3]; in vivo, diabetic rats): only for a short period of time
clearance of blood glucose ([3]; injection into diabetic rats): markedly accelerated clearance of blood glucose
